# According to PubChem BioAssay (NCI):
#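 The compound was tested at five concentrations on cells cultured in 96-well plates, with a 48-hour exposure period. At the GI50, growth is halved. Definition used: TGI = concentration required for complete inhibition of growth.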
# What was measured:
# Assay in all cases: DTP human tumour cell line panel, 48 h
# HS 578T breast = tested on: HS 578T breast
# SNB-19 CNS = tested on: SNB-19 CNS
# SF-268 CNS = tested on: SF-268 CNS
# OVCAR-3 ovarian = tested on: OVCAR-3 ovarian
# OVCAR-4 ovarian = tested on: OVCAR-4 ovarian
# A498 renal = tested on: A498 renal
# MOLT-4 leukemia = tested on: MOLT-4 leukemia
# HCT-15 colon = tested on: HCT-15 colon
# LOX IMVI melanoma = tested on: LOX IMVI melanoma
# A549 NSCLC = tested on: A549 NSCLC
# 786-0 renal = tested on: 786-0 renal
# HOP-92 NSCLC = tested on: HOP-92 NSCLC
# SK-MEL-28 melanoma = tested on: SK-MEL-28 melanoma
# HL-60(TB) leukemia = tested on: HL-60(TB) leukemia
# T-47D breast = tested on: T-47D breast
# SF-295 CNS = tested on: SF-295 CNS
# SK-MEL-2 melanoma = tested on: SK-MEL-2 melanoma
# MDA-MB-231 breast = tested on: MDA-MB-231 breast
# NCI-H460 lung = tested on: NCI-H460 lung
# DU-145 prostate = tested on: DU-145 prostate
# NCI-H522 lung = tested on: NCI-H522 lung
# MALME-3M melanoma = tested on: MALME-3M melanoma
# SK-OV-3 ovarian = tested on: SK-OV-3 ovarian
# MDA-MB-435 = tested on: MDA-MB-435
# NCI-H226 lung = tested on: NCI-H226 lung
# HT29 colon = tested on: HT29 colon
# SF-539 CNS = tested on: SF-539 CNS
# NCI/ADR-RES ovarian = tested on: NCI/ADR-RES ovarian
# SN12C renal = tested on: SN12C renal
# RXF 393 renal = tested on: RXF 393 renal
# KM12 colon = tested on: KM12 colon
# HOP-62 NSCLC = tested on: HOP-62 NSCLC
# SR leukemia = tested on: SR leukemia
# PC-3 prostate = tested on: PC-3 prostate
# BT-549 breast = tested on: BT-549 breast
# NCI-H23 lung = tested on: NCI-H23 lung
# ACHN renal = tested on: ACHN renal
# OVCAR-5 ovarian = tested on: OVCAR-5 ovarian
# U251 CNS = tested on: U251 CNS
# HCT-116 colon = tested on: HCT-116 colon
# K-562 leukemia = tested on: K-562 leukemia
# M14 melanoma = tested on: M14 melanoma
# MCF7 breast = tested on: MCF7 breast
# SK-MEL-5 melanoma = tested on: SK-MEL-5 melanoma
# COLO 205 colon = tested on: COLO 205 colon
# CAKI-1 renal = tested on: CAKI-1 renal
# HCC-2998 colon = tested on: HCC-2998 colon
# UO-31 renal = tested on: UO-31 renal
# SW-620 colon = tested on: SW-620 colon
# UACC-62 melanoma = tested on: UACC-62 melanoma
# TK-10 renal = tested on: TK-10 renal
# CCRF-CEM leukemia = tested on: CCRF-CEM leukemia
# OVCAR-8 ovarian = tested on: OVCAR-8 ovarian
# SNB-75 CNS = tested on: SNB-75 CNS
# IGROV1 ovarian = tested on: IGROV1 ovarian
# RPMI-8226 leukemia = tested on: RPMI-8226 leukemia
smiles,measurement,setting,value
FC(F)(F)c1cc(NC2=NCCN=C(Nc3cc(C(F)(F)F)cc(C(F)(F)F)c3)SS2)cc(C(F)(F)F)c1,GI50,HS 578T breast,5.08 µM
same,TGI,HS 578T breast,27.6 µM
same,GI50,SNB-19 CNS,4.08 µM
same,TGI,SNB-19 CNS,15.4 µM
same,GI50,SF-268 CNS,5.68 µM
same,TGI,SF-268 CNS,19.8 µM
same,GI50,OVCAR-3 ovarian,2.94 µM
same,TGI,OVCAR-3 ovarian,8.64 µM
same,GI50,OVCAR-4 ovarian,3.65 µM
same,TGI,OVCAR-4 ovarian,17 µM
same,GI50,A498 renal,2.24 µM
same,TGI,A498 renal,9.68 µM
same,GI50,MOLT-4 leukemia,4.71 µM
same,TGI,MOLT-4 leukemia,28 µM
same,GI50,HCT-15 colon,3.33 µM
same,TGI,HCT-15 colon,14.2 µM
same,GI50,LOX IMVI melanoma,4.59 µM
same,TGI,LOX IMVI melanoma,16.9 µM
same,GI50,A549 NSCLC,3.68 µM
same,TGI,A549 NSCLC,17.4 µM
same,GI50,786-0 renal,5.26 µM
same,TGI,786-0 renal,17.7 µM
same,GI50,HOP-92 NSCLC,1.52 µM
same,TGI,HOP-92 NSCLC,5.01 µM
same,GI50,SK-MEL-28 melanoma,6.07 µM
same,TGI,SK-MEL-28 melanoma,19.4 µM
same,GI50,HL-60(TB) leukemia,3.27 µM
same,TGI,HL-60(TB) leukemia,15.8 µM
same,GI50,T-47D breast,4.22 µM
same,TGI,T-47D breast,23.7 µM
same,GI50,SF-295 CNS,3.08 µM
same,TGI,SF-295 CNS,12.2 µM
same,GI50,SK-MEL-2 melanoma,4.49 µM
same,TGI,SK-MEL-2 melanoma,14.3 µM
same,GI50,MDA-MB-231 breast,3.59 µM
same,TGI,MDA-MB-231 breast,15 µM
same,GI50,NCI-H460 lung,3.7 µM
same,TGI,NCI-H460 lung,14.2 µM
same,GI50,DU-145 prostate,6.24 µM
same,TGI,DU-145 prostate,18.9 µM
same,GI50,NCI-H522 lung,2.84 µM
same,TGI,NCI-H522 lung,10.6 µM
same,GI50,MALME-3M melanoma,4.12 µM
same,TGI,MALME-3M melanoma,15.5 µM
same,GI50,SK-OV-3 ovarian,8.63 µM
same,TGI,SK-OV-3 ovarian,54.3 µM
same,GI50,MDA-MB-435,3.83 µM
same,TGI,MDA-MB-435,14.1 µM
same,GI50,NCI-H226 lung,3.07 µM
same,TGI,NCI-H226 lung,16.2 µM
same,GI50,HT29 colon,3.85 µM
same,TGI,HT29 colon,14.1 µM
same,GI50,SF-539 CNS,5.21 µM
same,TGI,SF-539 CNS,18.3 µM
same,GI50,NCI/ADR-RES ovarian,5.23 µM
same,TGI,NCI/ADR-RES ovarian,21.5 µM
same,GI50,SN12C renal,3.29 µM
same,TGI,SN12C renal,13.1 µM
same,GI50,RXF 393 renal,2.66 µM
same,TGI,RXF 393 renal,11.2 µM
same,GI50,KM12 colon,3.72 µM
same,TGI,KM12 colon,12.3 µM
same,GI50,HOP-62 NSCLC,13.1 µM
same,TGI,HOP-62 NSCLC,31.3 µM
same,GI50,SR leukemia,3.76 µM
same,TGI,SR leukemia,20.4 µM
same,GI50,PC-3 prostate,3 µM
same,TGI,PC-3 prostate,12.1 µM
same,GI50,BT-549 breast,6.2 µM
same,TGI,BT-549 breast,19.1 µM
same,GI50,NCI-H23 lung,4.75 µM
same,TGI,NCI-H23 lung,17.4 µM
same,GI50,ACHN renal,2.6 µM
same,TGI,ACHN renal,8.93 µM
same,GI50,OVCAR-5 ovarian,5.94 µM
same,TGI,OVCAR-5 ovarian,19.7 µM
same,GI50,U251 CNS,2.82 µM
same,TGI,U251 CNS,10.7 µM
same,GI50,HCT-116 colon,3.73 µM
same,TGI,HCT-116 colon,12.5 µM
same,GI50,K-562 leukemia,3.58 µM
same,TGI,K-562 leukemia,17.6 µM
same,GI50,M14 melanoma,6.87 µM
same,TGI,M14 melanoma,26.6 µM
same,GI50,MCF7 breast,2.9 µM
same,TGI,MCF7 breast,12.6 µM
same,GI50,SK-MEL-5 melanoma,3.2 µM
same,TGI,SK-MEL-5 melanoma,11.9 µM
same,GI50,COLO 205 colon,3.47 µM
same,TGI,COLO 205 colon,13.2 µM
same,GI50,CAKI-1 renal,3.12 µM
same,TGI,CAKI-1 renal,13.1 µM
same,GI50,HCC-2998 colon,6.15 µM
same,TGI,HCC-2998 colon,19.3 µM
same,GI50,UO-31 renal,2.66 µM
same,TGI,UO-31 renal,11.9 µM
same,GI50,SW-620 colon,3.71 µM
same,TGI,SW-620 colon,14.8 µM
same,GI50,UACC-62 melanoma,3.55 µM
same,TGI,UACC-62 melanoma,14.5 µM
same,GI50,TK-10 renal,5.25 µM
same,TGI,TK-10 renal,19.8 µM
same,GI50,CCRF-CEM leukemia,4.28 µM
same,TGI,CCRF-CEM leukemia,27 µM
same,GI50,OVCAR-8 ovarian,3.7 µM
same,TGI,OVCAR-8 ovarian,16.9 µM
same,GI50,SNB-75 CNS,9.35 µM
same,TGI,SNB-75 CNS,45.6 µM
same,GI50,IGROV1 ovarian,6.04 µM
same,TGI,IGROV1 ovarian,26.3 µM
same,GI50,RPMI-8226 leukemia,2.58 µM
same,TGI,RPMI-8226 leukemia,8.8 µM
